Source: article PMC9103764, “Pilot Study on Acute Effects of Pharmacological Intraperitoneal L-Homoarginine on Homeostasis of Lysine and Other Amino Acids in a Rat Model of Isoprenaline-Induced Takotsubo Cardiomyopathy” (International Journal of Molecular Sciences, 2022)

Key:
[1] = system: L-Arginine:glycine amidinotransferase (AGAT); assay: Equilibrium constants of the AGAT-catalyzed reactions calculated from free amino acid concentrations in rat organs; assay type: in vivo, Sprague-Dawley rats
[2] = system: polyamine catabolism; assay: Putrescine:spermidine (PUT/SPD) molar ratio in organ homogenates; conditions: R17; hArg 440 mg/kg i.p.; 14 min; without isoprenaline
[3] = R1, hArg 440 mg/kg i.p., sacrifice 32 min, ISO 50 mg/kg i.p. at 15 min
[4] = R2, hArg 20 mg/kg i.p., sacrifice 64 min, ISO 50 mg/kg i.p. at 15 min
[5] = R3, hArg 20 mg/kg i.p., sacrifice 28 min, ISO 50 mg/kg i.p. at 15 min
[6] = R4, hArg 440 mg/kg i.p., sacrifice 87 min, ISO 50 mg/kg i.p. at 15 min
[7] = R13, hArg 20 mg/kg i.p., sacrifice 126 min, ISO 50 mg/kg i.p. at 15 min
[8] = R14, hArg 220 mg/kg i.p., sacrifice 108 min, ISO 50 mg/kg i.p. at 15 min
[9] = R17, hArg 440 mg/kg i.p., sacrifice 14 min, no ISO
[10] = R18, hArg 20 mg/kg i.p., sacrifice 114 min, ISO 50 mg/kg i.p. at 15 min
[11] = R19, hArg 220 mg/kg i.p., sacrifice 98 min, ISO 50 mg/kg i.p. at 15 min

## N=C(N)NCCCC[C@H](N)C(=O)O [hArg, L-homoarginine]
[1]; [3]
  KhArg/KGAA ratio, kidney: 0.13
  KhArg/KGAA ratio, lung: 6.8
  equilibrium constant KGAA, kidney: 1.83
  equilibrium constant KGAA, lung: 0.06
  equilibrium constant KhArg, kidney: 0.24
  equilibrium constant KhArg, lung: 0.40
[1]; [4]
  KhArg/KGAA ratio, heart: 0.002
  KhArg/KGAA ratio, kidney: 0.23
  KhArg/KGAA ratio, liver: 0.19
  KhArg/KGAA ratio, lung: 0.13
  equilibrium constant KGAA, heart: 2.26
  equilibrium constant KGAA, kidney: 0.31
  equilibrium constant KGAA, liver: 0.09
  equilibrium constant KGAA, lung: 0.023
  equilibrium constant KhArg, heart: 0.005
  equilibrium constant KhArg, kidney: 0.07
  equilibrium constant KhArg, liver: 0.02
  equilibrium constant KhArg, lung: 0.003
[1]; [5]
  KhArg/KGAA ratio, heart: 0.001
  KhArg/KGAA ratio, kidney: 0.16
  KhArg/KGAA ratio, liver: 0.35
  KhArg/KGAA ratio, lung: 0.06
  equilibrium constant KGAA, heart: 1.39
  equilibrium constant KGAA, kidney: 0.37
  equilibrium constant KGAA, liver: 2.11
  equilibrium constant KGAA, lung: 5.34
  equilibrium constant KhArg, heart: 0.002
  equilibrium constant KhArg, kidney: 0.06
  equilibrium constant KhArg, liver: 0.74
  equilibrium constant KhArg, lung: 0.31
[1]; [6]
  KhArg/KGAA ratio, kidney: 2.18
  KhArg/KGAA ratio, liver: 1.61
  KhArg/KGAA ratio, lung: 2.61
  equilibrium constant KGAA, kidney: 0.53
  equilibrium constant KGAA, liver: 12.6
  equilibrium constant KGAA, lung: 0.13
  equilibrium constant KhArg, kidney: 1.16
  equilibrium constant KhArg, liver: 20.3
  equilibrium constant KhArg, lung: 0.34
[1]; [7]
  KhArg/KGAA ratio, heart: 0.43
  KhArg/KGAA ratio, kidney: 0.006
  KhArg/KGAA ratio, liver: 0.31
  KhArg/KGAA ratio, lung: 0.27
  equilibrium constant KGAA, heart: 0.23
  equilibrium constant KGAA, kidney: 1.14
  equilibrium constant KGAA, liver: 2.45
  equilibrium constant KGAA, lung: 0.07
  equilibrium constant KhArg, heart: 0.10
  equilibrium constant KhArg, kidney: 0.007
  equilibrium constant KhArg, liver: 0.76
  equilibrium constant KhArg, lung: 0.02
[1]; [8]
  KhArg/KGAA ratio, heart: 1.9
  KhArg/KGAA ratio, kidney: 0.05
  KhArg/KGAA ratio, liver: 4.8
  KhArg/KGAA ratio, lung: 1.13
  equilibrium constant KGAA, heart: 0.20
  equilibrium constant KGAA, kidney: 1.32
  equilibrium constant KGAA, liver: 1.07
  equilibrium constant KGAA, lung: 0.03
  equilibrium constant KhArg, heart: 0.38
  equilibrium constant KhArg, kidney: 0.06
  equilibrium constant KhArg, liver: 5.16
  equilibrium constant KhArg, lung: 0.03
[1]; [9]
  KhArg/KGAA ratio, heart: 3.8
  KhArg/KGAA ratio, kidney: 0.07
  KhArg/KGAA ratio, liver: 6.7
  KhArg/KGAA ratio, lung: 4.0
  equilibrium constant KGAA, heart: 0.09
  equilibrium constant KGAA, kidney: 1.64
  equilibrium constant KGAA, liver: 0.80
  equilibrium constant KGAA, lung: 0.04
  equilibrium constant KhArg, heart: 0.33
  equilibrium constant KhArg, kidney: 0.12
  equilibrium constant KhArg, liver: 5.38
  equilibrium constant KhArg, lung: 0.17
[1]; [10]
  KhArg/KGAA ratio, heart: 0.36
  KhArg/KGAA ratio, kidney: 0.005
  KhArg/KGAA ratio, liver: 0.12
  KhArg/KGAA ratio, lung: 0.12
  equilibrium constant KGAA, heart: 0.31
  equilibrium constant KGAA, kidney: 1.94
  equilibrium constant KGAA, liver: 4.20
  equilibrium constant KGAA, lung: 0.21
  equilibrium constant KhArg, heart: 0.11
  equilibrium constant KhArg, kidney: 0.009
  equilibrium constant KhArg, liver: 0.50
  equilibrium constant KhArg, lung: 0.03
[1]; [11]
  KhArg/KGAA ratio, kidney: 1.8
  KhArg/KGAA ratio, liver: 2.0
  equilibrium constant KGAA, kidney: 0.35
  equilibrium constant KGAA, liver: 2.59
  equilibrium constant KhArg, kidney: 0.62
  equilibrium constant KhArg, liver: 5.26
  equilibrium constant KhArg, lung: 0.20
[2]
  PUT/SPD molar ratio, heart: 1.5
  PUT/SPD molar ratio, kidney: 0.86
  PUT/SPD molar ratio, liver: 0.12
  PUT/SPD molar ratio, lung: 0.83
All organs, data not shown
  effect on citrullination (proteinic Cit) in organs: independent of the hArg dose
rat, in vivo
  incorporation of pharmacological hArg into tissue proteins: no incorporation of pharmacological hArg into tissue proteins
